{"source": "patent US10738028B2", "about": "“Spiro three-membered ring, spiro five-membered ring peptide deformylase inhibitor and use thereof in antibacteria and anti-tumor” (priority 2016, dated 2020)", "key": {"the test strains": {"system": "the test strains", "test": "MIC against the test strains (strain not given)", "format": "cell-based", "conditions": "read-out: MIC (azole amide bioisosteres)", "description": "1. The invention adopts the two-fold agar dilution method recommended by the operating procedure of antimicrobial susceptibility testing set by American Clinical and Laboratory Standards Institute (CLSI) to determine the Minimum Inhibitory Concentration (MIC) of the test samples against the tested strains."}, "[1]": {"system": "Enterococcus faecalis (EFA)", "test": "MIC, two-fold agar dilution (CLSI), clinical isolates", "format": "cell-based", "summary_of_the_method": "(§1)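 Susceptibility was tested using CLSI two-fold agar dilution against the strains examined.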"}, "[2]": {"system": "Escherichia coli (including ESBLs, non-ESBLs)", "test": "MIC, two-fold agar dilution (CLSI), clinical isolates", "format": "cell-based", "summary_of_the_method": "as §1"}, "[3]": {"system": "methicillin-sensitive Staphylococcus aureus (MSSA)", "test": "MIC, two-fold agar dilution (CLSI), clinical isolates", "format": "cell-based", "summary_of_the_method": "as §1"}, "[4]": {"system": "methicillin-resistant Staphylococcus aureus (MRSA)", "test": "MIC, two-fold agar dilution (CLSI), clinical isolates", "format": "cell-based", "summary_of_the_method": "as §1"}, "[5]": {"system": "methicillin-resistant Staphylococcus epidermidis (MRSE)", "test": "MIC, two-fold agar dilution (CLSI), clinical isolates", "format": "cell-based", "summary_of_the_method": "as §1"}, "[6]": {"system": "methicillin-sensitive Staphylococcus epidermidis (MSSE)", "test": "MIC, two-fold agar dilution (CLSI), clinical isolates", "format": "cell-based", "summary_of_the_method": "as §1"}, "[7]": {"system": "methemoglobin in blood samples of three healthy volunteers", "test": "Toxicity on methemoglobin in vitro (whole blood with S9 and NADPH, absorbance at 630 nm)", "format": "cell-based, human", "conditions": "500 μM compound; whole blood + S9 + NADPH; 5 hours at 37° C.", "description": "Because PDF inhibitors such as LBM415 and GSK1322322 can produce active species such as aromatic hydroxylamine and aromatic hydrazines in metabolic process, and cause human methemoglobinemia. To this end, continuous wavelength method was adopted in this invention to scan the absorption spectrum of blood samples in the wavelength range of 500 to 700 nm in the ultraviolet-visible spectrophotometer, and the contents of methemoglobin in blood samples of three healthy volunteers were calculated, after being effected by the synthesized compounds.\nExperimental materials: Nicotinamide adenine dinucleotide phosphate (NADPH) reduction system: glucose-6-disodium phosphate, nicotinamide adenine dinucleoside phosphate and glucose-6-phosphate dehydrogenase (purchased from Shanghai yuanye Bio-Technology Co., Ltd) were added to 1 mL of phosphate buffer solution (PBS, pH 7.4), and the mixture was shaked in a shaker type water bath at 37° C. for 10 min, and then cooled to 0° C. Mixed human hepatocytes fraction S9 was purchased from Xenotech (20 mg S9 protein/1 mL suspension medium). Compounds were prepared to stock solution at a concentration of 50 mM, which was stored at −20° C. for use. Dapsone was used as positive control experimental reagent, which was purchased from Sigma Aldrich. 1% w/v triton X-100 was self-prepared. Blood samples were collected using Vacutainer tubes containing EDTA anticoagulants (BD, Franklin Lakes, USA), which were sampled from three healthy volunteers and used immediately after sampling.\nPreparation of incubation system for blood samples and drugs: 250 μL of incubation system was consist of 220 μL of whole blood, 25 μL of S9 (final concentration: 2 mg S9 protein/mL incubation solution), 2.5 μL of NADPH form system (final concentration: 10 mM G-6-P, 1 mM NADP, 7.5 Units/mL) and 2.5 μL of stock solution of a compound (final concentration 500 μM). […] of incubation system was placed in an Eppendorf tube and incubated for 5 hours at 37° C. in water bath.\nDetermination of the content of methemoglobin: 60 μL of an incubated sample was taken and lysed with 3.0 mL of 1% Triton X-100. The content of methemoglobin (MetHb) was measured by an ultraviolet-visible spectrophotometer, with the Triton X-100 solution used as blank control. A sample was placed in a cuvette, 1 minute later, the spectrums of the sample in the wavelength range from 500 nm to 700 nm were recorded. The sample was added with 2 mg of potassium ferricyanide, and was allowed to stay stationary for 2 minutes for completely oxidization of ferrous iron in the sample, and standard spectrum of methemoglobin with saturated potassium ferricyanide. The percentage of methemoglobin formation (MetHb %) was obtained by the ratio of absorbance at 630 nm. MetHb %=(A′−AB′)/AM′, wherein, A′ was the total absorbance of the sample at 630 nm, AB′ was the base absorbance of the reduced blood in the sample at 630 nm, and AM′ was the absorbance of oxidized blood with saturated potassium ferricyanide at 630 nm."}, "[8]": {"system": "HCT-116 colorectal cancer cell line", "test": "CCK-8 proliferation inhibition", "format": "cell-based", "conditions": "Homo sapiens, HCT-116, 72 h, read-out: HCT116 inhibition rate/%", "summary_of_the_method": "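2000 cells/well, McCoy's 5A + 10% newborn bovine serum; overnight attach, 37° C./5% CO2. Cpd from DMSO stock diluted in medium, 72 h. Readout: CCK-8 (1:10). Ctrl 1‰ DMSO.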"}}, "data": [{"smiles": "CCCC[C@H](CN(O)C=O)C(=O)N1CC2(CC2)C[C@H]1c1nc(-c2cccnc2)no1", "note": "[Example 11, N-hydroxy-N—((R)-2-((S)-6-(3-(pyridin-3-yl)-1,2,4-oxadiazol-5-yl)-5-azaspiro[2.4]heptane-5-carbonyl)hexyl)carboxamide]", "values": [{"measurement": "MIC", "setting": "the test strains", "result": "0.5 to 2", "unit": "µg/mL"}, {"measurement": "MIC (anti-bacterial activity)", "setting": "[1]; strain EFA 14-1", "result": 2, "unit": "µg/mL"}, {"measurement": "MIC (anti-bacterial activity)", "setting": "[1]; strain EFA 14-2", "result": 2, "unit": "µg/mL"}, {"measurement": "MIC (anti-bacterial activity)", "setting": "[1]; strain EFA 14-3", "result": 2, "unit": "µg/mL"}, {"measurement": "MIC (anti-bacterial activity)", "setting": "[1]; strain EFA 14-5", "result": 2, "unit": "µg/mL"}, {"measurement": "MIC (anti-bacterial activity)", "setting": "[2]; strain ECO+ 14-1", "result": 1, "unit": "µg/mL"}, {"measurement": "MIC (anti-bacterial activity)", "setting": "[2]; strain ECO+ 14-2", "result": 32, "unit": "µg/mL"}, {"measurement": "MIC (anti-bacterial activity)", "setting": "[2]; strain ECO− 14-1", "result": 64, "unit": "µg/mL"}, {"measurement": "MIC (anti-bacterial activity)", "setting": "[2]; strain ECO− 14-2", "result": 64, "unit": "µg/mL"}, {"measurement": "MIC (anti-bacterial activity)", "setting": "[3]; strain MSSA 14-1", "result": 0.5, "unit": "µg/mL"}, {"measurement": "MIC (anti-bacterial activity)", "setting": "[3]; strain MSSA 14-2", "result": 0.5, "unit": "µg/mL"}, {"measurement": "MIC (anti-bacterial activity)", "setting": "[3]; strain MSSA 14-3", "result": 0.5, "unit": "µg/mL"}, {"measurement": "MIC (anti-bacterial activity)", "setting": "[3]; strain MSSA 14-4", "result": 0.5, "unit": "µg/mL"}, {"measurement": "MIC (anti-bacterial activity)", "setting": "[4]; strain MRSA 14-1", "result": 0.5, "unit": "µg/mL"}, {"measurement": "MIC (anti-bacterial activity)", "setting": "[4]; strain MRSA 14-2", "result": 0.5, "unit": "µg/mL"}, {"measurement": "MIC (anti-bacterial activity)", "setting": "[4]; strain MRSA 14-4", "result": 0.5, "unit": "µg/mL"}, {"measurement": "MIC (anti-bacterial activity)", "setting": "[4]; strain MRSA 14-5", "result": 0.5, "unit": "µg/mL"}, {"measurement": "MIC (anti-bacterial activity)", "setting": "[4]; strain printed MRSA 14-1 (second line of that name, r23, before MRSE 14-2)", "result": 0.25, "unit": "µg/mL"}, {"measurement": "MIC (anti-bacterial activity)", "setting": "[5]; strain MRSE 14-2", "result": 0.25, "unit": "µg/mL"}, {"measurement": "MIC (anti-bacterial activity)", "setting": "[5]; strain MRSE 14-3", "result": 0.125, "unit": "µg/mL"}, {"measurement": "MIC (anti-bacterial activity)", "setting": "[5]; strain MRSE 14-4", "result": 0.5, "unit": "µg/mL"}, {"measurement": "MIC (anti-bacterial activity)", "setting": "[6]; strain MSSE 14-1", "result": 0.125, "unit": "µg/mL"}, {"measurement": "MIC (anti-bacterial activity)", "setting": "[6]; strain MSSE 14-2", "result": 0.5, "unit": "µg/mL"}, {"measurement": "MIC (anti-bacterial activity)", "setting": "[6]; strain MSSE 14-3", "result": 0.125, "unit": "µg/mL"}, {"measurement": "MIC (anti-bacterial activity)", "setting": "[6]; strain MSSE 14-4", "result": 0.5, "unit": "µg/mL"}, {"measurement": "MetHb % (n = 3)", "setting": "[7]", "result": "1.26 ± 0.07", "unit": "%"}, {"measurement": "inhibition at 30 µM", "setting": "[8]", "result": 17, "unit": "%"}]}]}
